Laboratory results taken from publication PMC5218480 (PLoS ONE, 2017).

Test system: MV-4-11 cells
Experiment: Gene expression microarray analysis (Affymetrix PrimeView) and GSEA
Type: cell-based, human
Design: RFU PODN (11730768_x_at) / Fold change /veh PODN (11730768_x_at) / RFU LINC00158 (11744669_a_at) / Fold change /veh LINC00158 (11744669_a_at) / RFU DUSP10 (11751237_a_at) / Fold change /veh DUSP10 (11751237_a_at) / RFU ID3 (11757404_x_at) / Fold change /veh ID3 (11757404_x_at) / RFU PLEKHG5 (11737974_s_at) / Fold change /veh PLEKHG5 (11737974_s_at) / RFU LRRC4B (11730491_at) / Fold change /veh LRRC4B (11730491_at) / RFU GIMAP4 (11747438_a_at) / Fold change /veh GIMAP4 (11747438_a_at) / RFU KRT8 (11758183_x_at) / Fold change /veh KRT8 (11758183_x_at) / RFU CNN1 (11734310_a_at) / Fold change /veh CNN1 (11734310_a_at) / RFU VPS37D (11726825_at) / Fold change /veh VPS37D (11726825_at) / RFU C10orf10 (11716522_x_at) / Fold change /veh C10orf10 (11716522_x_at) / RFU KIR2DL2 /// KIR2DL4 /// KIR2DL5A /// KIR2DL5B /// KIR2DS1 /// KIR2DS2 /// KIR2DS3 /// KIR2DS4 /// KIR3DL3 /// KIR3DL3 /// KIR3DS1 (11738374_at) / Fold change /veh KIR2DL2 /// KIR2DL4 /// KIR2DL5A /// KIR2DL5B /// KIR2DS1 /// KIR2DS2 /// KIR2DS3 /// KIR2DS4 /// KIR3DL3 /// KIR3DL3 /// KIR3DS1 (11738374_at) / RFU C1QL1 (11718748_at) / Fold change /veh C1QL1 (11718748_at) / RFU TMPRSS4 (11747572_a_at) / Fold change /veh TMPRSS4 (11747572_a_at) / RFU HAMP (11756126_x_at) / Fold change /veh HAMP (11756126_x_at) / RFU RNFT2 (11725882_a_at) / Fold change /veh RNFT2 (11725882_a_at) / RFU NR4A2 (11747474_a_at) / Fold change /veh NR4A2 (11747474_a_at) / RFU ABCC12 (11746883_a_at) / Fold change /veh ABCC12 (11746883_a_at) / RFU TMEM136 (11760407_x_at) / Fold change /veh TMEM136 (11760407_x_at) / RFU CLDN22 /// WWC2 (11732394_at) / Fold change /veh CLDN22 /// WWC2 (11732394_at) / RFU HLA-DPB1 (11760878_x_at) / Fold change /veh HLA-DPB1 (11760878_x_at) / RFU SPINT1 (11716480_a_at) / Fold change /veh SPINT1 (11716480_a_at) / RFU GAP43 (11754022_s_at) / Fold change /veh GAP43 (11754022_s_at) / RFU A4GNT (11735810_at) / Fold change /veh A4GNT (11735810_at) / RFU PRB3 (11715151_x_at) / Fold change /veh PRB3 (11715151_x_at) / RFU TUBB4B (11761932_at) / Fold change /veh TUBB4B (11761932_at) / RFU CAPN14 (11732068_a_at) / Fold change /veh CAPN14 (11732068_a_at) / RFU TMCC2 (11721928_a_at) / Fold change /veh TMCC2 (11721928_a_at) / RFU IRGQ (11745062_a_at) / Fold change /veh IRGQ (11745062_a_at) / RFU FAM174B (11720279_a_at) / Fold change /veh FAM174B (11720279_a_at) / RFU TMPRSS4 (11748680_a_at) / Fold change /veh TMPRSS4 (11748680_a_at) / RFU FAM212B (11763350_a_at) / Fold change /veh FAM212B (11763350_a_at) / RFU PLEKHG5 (11743358_a_at) / Fold change /veh PLEKHG5 (11743358_a_at) / RFU ZSCAN30 (11745921_a_at) / Fold change /veh ZSCAN30 (11745921_a_at) / RFU CMKLR1 (11741424_a_at) / Fold change /veh CMKLR1 (11741424_a_at) / RFU LOC101060620 /// MAPK8IP1 (11723275_at) / Fold change /veh LOC101060620 /// MAPK8IP1 (11723275_at) / RFU SPTSSB (11747773_x_at) / Fold change /veh SPTSSB (11747773_x_at) / RFU PRSS12 (11739890_at) / Fold change /veh PRSS12 (11739890_at) / RFU BIN1 (11741810_x_at) / Fold change /veh BIN1 (11741810_x_at) / RFU WNT11 (11732464_a_at) / Fold change /veh WNT11 (11732464_a_at) / RFU C10orf10 (11716521_a_at) / Fold change /veh C10orf10 (11716521_a_at) / RFU C5orf56 (11738089_at) / Fold change /veh C5orf56 (11738089_at) / RFU CYB561 (11721691_x_at) / Fold change /veh CYB561 (11721691_x_at) / RFU ANKRD19P (11752326_a_at) / Fold change /veh ANKRD19P (11752326_a_at) / RFU OR2T12 /// OR2T33 /// OR2T8 (11738714_s_at) / Fold change /veh OR2T12 /// OR2T33 /// OR2T8 (11738714_s_at) / RFU VCAN (11748164_a_at) / Fold change /veh VCAN (11748164_a_at) / RFU JSRP1 (11732532_at) / Fold change /veh JSRP1 (11732532_at) / RFU KRTAP10-11 (11738290_x_at) / Fold change /veh KRTAP10-11 (11738290_x_at) / RFU MYO3A (11730013_a_at) / Fold change /veh MYO3A (11730013_a_at) / RFU EBF3 (11725865_a_at) / Fold change /veh EBF3 (11725865_a_at) / RFU CAMK2N1 (11719241_x_at) / Fold change /veh CAMK2N1 (11719241_x_at) / RFU C5orf56 (11738088_a_at) / Fold change /veh C5orf56 (11738088_a_at) / RFU OLFML3 (11715873_a_at) / Fold change /veh OLFML3 (11715873_a_at) / RFU LOC100653217 /// NTM (11731650_a_at) / Fold change /veh LOC100653217 /// NTM (11731650_a_at) / RFU MAPK11 (11762145_a_at) / Fold change /veh MAPK11 (11762145_a_at) / RFU FIZ1 (11724087_x_at) / Fold change /veh FIZ1 (11724087_x_at) / RFU OASL (11726364_x_at) / Fold change /veh OASL (11726364_x_at) / RFU SOX15 (11748057_x_at) / Fold change /veh SOX15 (11748057_x_at) / RFU CD79A (11719716_a_at) / Fold change /veh CD79A (11719716_a_at) / RFU HIST1H1D (11736915_at) / Fold change /veh HIST1H1D (11736915_at) / RFU CASKIN2 (11723855_a_at) / Fold change /veh CASKIN2 (11723855_a_at) / RFU LOC730098 (11760151_x_at) / Fold change /veh LOC730098 (11760151_x_at) / RFU OR4N2 (11742367_at) / Fold change /veh OR4N2 (11742367_at) / RFU PRRT2 (11749266_a_at) / Fold change /veh PRRT2 (11749266_a_at) / RFU SNX32 (11753110_a_at) / Fold change /veh SNX32 (11753110_a_at) / RFU CDHR5 (11726645_a_at) / Fold change /veh CDHR5 (11726645_a_at) / RFU RCAN1 (11760418_a_at) / Fold change /veh RCAN1 (11760418_a_at) / RFU FAM167A (11723789_a_at) / Fold change /veh FAM167A (11723789_a_at) / RFU FAM26E (11764081_at) / Fold change /veh FAM26E (11764081_at) / RFU ISYNA1 (11749810_s_at) / Fold change /veh ISYNA1 (11749810_s_at) / RFU ACY1 (11761880_at) / Fold change /veh ACY1 (11761880_at) / RFU 11764098_at / Fold change /veh 11764098_at / RFU SAMD14 (11745864_x_at) / Fold change /veh SAMD14 (11745864_x_at) / RFU NPB (11741838_a_at) / Fold change /veh NPB (11741838_a_at) / RFU TMPRSS6 (11731388_a_at) / Fold change /veh TMPRSS6 (11731388_a_at) / RFU KRTAP10-2 (11738614_at) / Fold change /veh KRTAP10-2 (11738614_at) / RFU ARHGAP8 /// PRR5-ARHGAP8 (11727945_x_at) / Fold change /veh ARHGAP8 /// PRR5-ARHGAP8 (11727945_x_at) / RFU KRTAP5-7 /// NADSYN1 (11734609_at) / Fold change /veh KRTAP5-7 /// NADSYN1 (11734609_at) / RFU RASL12 (11751679_a_at) / Fold change /veh RASL12 (11751679_a_at) / RFU CDKN2B (11736163_a_at) / Fold change /veh CDKN2B (11736163_a_at) / RFU PRF1 (11729649_at) / Fold change /veh PRF1 (11729649_at) / RFU, ZNF638 /// ZNF638-IT1 / Fold change vs veh, ZNF638 /// ZNF638-IT1 / RFU, PANK3 / Fold change vs veh, PANK3 / RFU, SH3YL1 / Fold change vs veh, SH3YL1 / RFU, ZEB2 / Fold change vs veh, ZEB2 / RFU, NRIP1 / Fold change vs veh, NRIP1 / RFU, PTTG1IP / Fold change vs veh, PTTG1IP / RFU, CAPN2 / Fold change vs veh, CAPN2 / RFU, MED14 / Fold change vs veh, MED14 / RFU, SNORA58 / Fold change vs veh, SNORA58 / RFU, C1orf63 / Fold change vs veh, C1orf63 / RFU, LRRFIP1 / Fold change vs veh, LRRFIP1 / RFU, NDUFAF7 / Fold change vs veh, NDUFAF7 / RFU, SLC12A2 / Fold change vs veh, SLC12A2 / RFU, IBTK / Fold change vs veh, IBTK / RFU, ESF1 / Fold change vs veh, ESF1 / Fold change vs veh, TMEM50B / RFU, TAOK1 / Fold change vs veh, TAOK1 / RFU, ACBD3 / Fold change vs veh, ACBD3 / RFU, TMA16 / Fold change vs veh, TMA16 / RFU, RWDD3 / Fold change vs veh, RWDD3 / RFU, BCAT1 / Fold change vs veh, BCAT1 / RFU, EDEM3 / Fold change vs veh, EDEM3 / RFU, TMEM33 / Fold change vs veh, TMEM33 / RFU, WDR75 / Fold change vs veh, WDR75 / RFU, AHCTF1 / Fold change vs veh, AHCTF1 / RFU, TFRC / Fold change vs veh, TFRC / RFU, ZDHHC17 / Fold change vs veh, ZDHHC17 / RFU, NOM1 / Fold change vs veh, NOM1 / RFU, ARL8B / Fold change vs veh, ARL8B / RFU, ZBTB11 / Fold change vs veh, ZBTB11 / RFU, TAMM41 / Fold change vs veh, TAMM41 / RFU, KIAA1704 /// LOC100996395 / Fold change vs veh, KIAA1704 /// LOC100996395 / RFU, ING1 / Fold change vs veh, ING1 / RFU, TRMT61B / Fold change vs veh, TRMT61B / RFU, FUBP3 / Fold change vs veh, FUBP3 / RFU, TP53 / Fold change vs veh, TP53 / RFU, TNKS2 / Fold change vs veh, TNKS2 / RFU, ZFP14 / Fold change vs veh, ZFP14 / RFU, ACTR2 / Fold change vs veh, ACTR2 / RFU, PPP3R1 / Fold change vs veh, PPP3R1 / RFU, PIK3R1 / Fold change vs veh, PIK3R1 / RFU, HNRNPA1 / Fold change vs veh, HNRNPA1 / RFU, RNF170 / Fold change vs veh, RNF170 / RFU, ZNF28 / Fold change vs veh, ZNF28 / RFU, RNGTT / Fold change vs veh, RNGTT / RFU, OGT / Fold change vs veh, OGT / RFU, BRD1 / Fold change vs veh, BRD1 / RFU, MARS / Fold change vs veh, MARS / RFU, ZNF655 / Fold change vs veh, ZNF655 / RFU, FAHD1 / Fold change vs veh, FAHD1 / RFU, BDP1 / Fold change vs veh, BDP1 / RFU, LRRCC1 / Fold change vs veh, LRRCC1 / RFU, ARID1A / Fold change vs veh, ARID1A / RFU, ZNF146 / Fold change vs veh, ZNF146 / RFU, ZNF330 / Fold change vs veh, ZNF330 / RFU, GPN3 / Fold change vs veh, GPN3 / RFU, C9orf123 / Fold change vs veh, C9orf123 / RFU, N4BP2L2 / Fold change vs veh, N4BP2L2 / RFU, ARFIP1 / Fold change vs veh, ARFIP1 / RFU, FAM179B / Fold change vs veh, FAM179B / RFU, BCL10 / Fold change vs veh, BCL10 / RFU, UHRF1BP1L / Fold change vs veh, UHRF1BP1L / RFU, BET1 / Fold change vs veh, BET1 / RFU, CNOT2 / Fold change vs veh, CNOT2 / RFU, ZNF268 / Fold change vs veh, ZNF268 / Fold change vs veh, ZNF507 / RFU, DGCR2 / Fold change vs veh, DGCR2 / RFU, WDSUB1 / Fold change vs veh, WDSUB1 / Fold change vs veh, HSP90B1 /// MIR3652 / RFU, ADSS / Fold change vs veh, ADSS / RFU, GK / Fold change vs veh, GK / RFU, ZNF148 / Fold change vs veh, ZNF148 / RFU, TAF9 / Fold change vs veh, TAF9 / RFU, SLC1A5 / Fold change vs veh, SLC1A5 / RFU, SLMO2 / Fold change vs veh, SLMO2 / RFU, ABCC4 / Fold change vs veh, ABCC4 / RFU, LOC101060439 /// RAP1B / Fold change vs veh, LOC101060439 /// RAP1B / RFU, RFX7 / Fold change vs veh, RFX7 / RFU, GTPBP10 / Fold change vs veh, GTPBP10 / RFU, CNEP1R1 / Fold change vs veh, CNEP1R1 / RFU, BIVM-ERCC5 /// ERCC5 / Fold change vs veh, BIVM-ERCC5 /// ERCC5 / RFU, ILF3 / Fold change vs veh, ILF3 / RFU 11762660_at / Fold change /veh 11762660_at / RFU VCAN (11757783_s_at) / Fold change /veh VCAN (11757783_s_at) / RFU DDX43 (11728927_at) / Fold change /veh DDX43 (11728927_at) / RFU KRT8 (11758188_x_at) / Fold change /veh KRT8 (11758188_x_at) / RFU NKD1 (11759106_at) / Fold change /veh NKD1 (11759106_at) / RFU SRD5A1 (11742802_a_at) / Fold change /veh SRD5A1 (11742802_a_at) / RFU TPSAB1 /// TPSB2 (11721975_s_at) / Fold change /veh TPSAB1 /// TPSB2 (11721975_s_at) / RFU GSTM3 (11746129_a_at) / Fold change /veh GSTM3 (11746129_a_at) / RFU IL23R (11737362_x_at) / Fold change /veh IL23R (11737362_x_at) / RFU TMEM51 (11727254_a_at) / Fold change /veh TMEM51 (11727254_a_at) / RFU PIWIL2 (11732686_x_at) / Fold change /veh PIWIL2 (11732686_x_at) / RFU ORM1 (11744905_x_at) / Fold change /veh ORM1 (11744905_x_at) / RFU CCDC152 (11743942_at) / Fold change /veh CCDC152 (11743942_at) / RFU ECM1 (11717891_a_at) / Fold change /veh ECM1 (11717891_a_at) / RFU IL23R (11748794_a_at) / Fold change /veh IL23R (11748794_a_at) / RFU TNFAIP8L3 (11732012_x_at) / Fold change /veh TNFAIP8L3 (11732012_x_at) / RFU MBOAT4 (11741988_at) / Fold change /veh MBOAT4 (11741988_at) / RFU 11764193_at / Fold change /veh 11764193_at / RFU TMEM53 (11763286_at) / Fold change /veh TMEM53 (11763286_at) / RFU MAGEB2 (11727129_at) / Fold change /veh MAGEB2 (11727129_at) / RFU TMEM200A (11744735_a_at) / Fold change /veh TMEM200A (11744735_a_at) / RFU CCDC152 (11751479_a_at) / Fold change /veh CCDC152 (11751479_a_at) / RFU FAM211A (11726209_a_at) / Fold change /veh FAM211A (11726209_a_at) / RFU RGS16 (11746705_a_at) / Fold change /veh RGS16 (11746705_a_at) / RFU VCAN (11755009_s_at) / Fold change /veh VCAN (11755009_s_at) / RFU RHOB (11743442_s_at) / Fold change /veh RHOB (11743442_s_at) / RFU RGS16 (11720943_a_at) / Fold change /veh RGS16 (11720943_a_at) / RFU RGS16 (11720944_at) / Fold change /veh RGS16 (11720944_at) / RFU, VPS4B / Fold change vs veh, VPS4B / RFU, CREB1 / Fold change vs veh, CREB1 / RFU, DNAJC13 / Fold change vs veh, DNAJC13 / RFU, GNAQ / Fold change vs veh, GNAQ / RFU, CDK5R1 / Fold change vs veh, CDK5R1 / RFU, ZRANB3 / Fold change vs veh, ZRANB3 / RFU, CUL4A / Fold change vs veh, CUL4A / RFU, CCNY / Fold change vs veh, CCNY / RFU, UFL1 / Fold change vs veh, UFL1 / RFU, COG3 / Fold change vs veh, COG3 / RFU, DIAPH2 / Fold change vs veh, DIAPH2 / RFU, SKA2 / Fold change vs veh, SKA2 / RFU, AFF3 / Fold change vs veh, AFF3 / RFU, LMF1 / Fold change vs veh, LMF1 / RFU, IPO11 / Fold change vs veh, IPO11 / RFU, DFFB / Fold change vs veh, DFFB / RFU, FOXP1 / Fold change vs veh, FOXP1 / RFU, CARD8 / Fold change vs veh, CARD8 / RFU, STRN3 / Fold change vs veh, STRN3 / RFU, ADK / Fold change vs veh, ADK / RFU, RASSF2 / Fold change vs veh, RASSF2 / RFU, WIPF1 / Fold change vs veh, WIPF1 / RFU, LARP1B / Fold change vs veh, LARP1B / RFU, RASA1 / Fold change vs veh, RASA1 / RFU, RB1 / Fold change vs veh, RB1 / RFU, PPFIA1 / Fold change vs veh, PPFIA1 / RFU, MAT2A / Fold change vs veh, MAT2A / RFU, CCT5 / Fold change vs veh, CCT5 / RFU, WDR92 / Fold change vs veh, WDR92 / RFU, CUX1 / Fold change vs veh, CUX1 / RFU, TTC7A / Fold change vs veh, TTC7A / RFU, TMEM135 / Fold change vs veh, TMEM135 / RFU, DEPTOR / Fold change vs veh, DEPTOR / RFU, CPM / Fold change vs veh, CPM / RFU, DNAJB6 / Fold change vs veh, DNAJB6 / RFU, CACNA2D3 / Fold change vs veh, CACNA2D3 / RFU, DTX4 / Fold change vs veh, DTX4 / RFU, TFCP2 / Fold change vs veh, TFCP2 / RFU, GMCL1 /// GMCL1P1 / Fold change vs veh, GMCL1 /// GMCL1P1 / RFU, AEBP2 / Fold change vs veh, AEBP2 / RFU, SNHG1 /// SNORD22 /// SNORD25 /// SNORD26 /// SNORD27 /// SNORD28 /// SNORD29 /// SNORD31 / Fold change vs veh, SNHG1 /// SNORD22 /// SNORD25 /// SNORD26 /// SNORD27 /// SNORD28 /// SNORD29 /// SNORD31 / Fold change (Aza/veh), C12orf56 (ProbeSet 11735607_a_at) / Fold change (ACY-1035/veh), C12orf56 (ProbeSet 11735607_a_at) / Fold change (Aza/veh), FGFR1OP (ProbeSet 11751329_s_at) / Fold change (ACY-1035/veh), FGFR1OP (ProbeSet 11751329_s_at) / Fold change (Aza/veh), VPS36 (ProbeSet 11739960_a_at) / Fold change (ACY-1035/veh), VPS36 (ProbeSet 11739960_a_at) / RFU SYPL1 (11715823_x_at) / Fold change /veh SYPL1 (11715823_x_at) / RFU IGFBP7 (11715501_s_at) / Fold change /veh IGFBP7 (11715501_s_at) / RFU REEP3 (11722064_at) / Fold change /veh REEP3 (11722064_at) / RFU IGLL1 (11728026_x_at) / Fold change /veh IGLL1 (11728026_x_at): dose or concentration left out as unconfirmed
Settings: ProbeSet 11720154_at; LIST B

Nc1ccc(-c2cccs2)cc1NC(=O)c1ccc2c(c1)cc(C1CC1)n2CCN1CCOCC1 [ACY-1035]
RFU, NRIP1: 473.81 RFU
